# Results published in patent US20170224679A1, “Use of CXCR2 Antagonists For The Prevention and/or Treatment of Chemotherapy Induced Peripheral Neuropathy (CIPN)” (GlaxoSmithKline Intellectual Property Development Limited, priority 2014, published 2017).
# Biological target: T1, CXCR1 receptor (Homo sapiens, UniProt P25024)
# T1 sequence (P25024 1-350): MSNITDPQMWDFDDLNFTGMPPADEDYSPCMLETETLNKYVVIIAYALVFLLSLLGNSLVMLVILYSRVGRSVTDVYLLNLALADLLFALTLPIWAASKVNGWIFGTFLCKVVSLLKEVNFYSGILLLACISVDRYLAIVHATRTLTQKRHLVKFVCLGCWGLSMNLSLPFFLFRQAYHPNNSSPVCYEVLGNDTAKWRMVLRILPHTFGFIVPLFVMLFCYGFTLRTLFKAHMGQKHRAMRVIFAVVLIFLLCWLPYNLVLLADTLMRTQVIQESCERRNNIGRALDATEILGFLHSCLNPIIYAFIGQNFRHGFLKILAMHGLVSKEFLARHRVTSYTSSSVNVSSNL
# Assay: Receptor binding assay ([125I] IL-8 SPA), CXCR1
# Design: expressed in transfected cells; host or cells: CHO cells (membranes)
# Conditions: [125I] IL-8 binding, CHO-CXCR1 membranes; read-out: pIC50 against the CXCR1 receptor (converted)
# Procedure: [^125I] IL-8 (human recombinant, IM249) was obtained from Amersham Corp., Arlington Heights, Ill., with specific activity 2000 Ci/mmol. All other chemicals were of analytical grade. High levels of recombinant human CXCR1 and CXCR2 receptors were individually expressed in Chinese hamster ovary (CHO) cells as described in Holmes, et al., Science, 1991, 253, 1278, incorporated herein to the extent required to perform the present assay. The Chinese hamster ovary membranes were prepared according to Haour, et al., J. Biol. Chem., 249 pp 2195-2205 (1974), incorporated herein to the extent required to perform the present assay, except that the homogenization buffer was changed to 40 mM Tris-HCL pH 7.5 containing 1 mM MgSO4, 0.5 mM EDTA (ethylene-diaminetetra-acetic acid), 1 mM PMSF (α-toluene-sulphonyl fluoride), 2.5 mg/L Leupeptin and 0.1 mg/ml Aprotinin. Membrane protein concentration was determined using Bio-Rad Reagent using bovine serum albumin as a standard. All binding assays were conducted using Scintillation Proximity Assay (SPA assay) using wheatgerm agglutinin beads in a 96-well micro plate (optiplate 96, Packard) format. […] The 96-well plates were incubated on a shaking platform for 1 hour. At the end of the incubation the plates were spun for 5 min at 2000 RPM, and counted in a Top Count counter.
smiles,measurement,value
"O=C(Nc1ccc(Cl)c(S(=O)(=O)N2CCNCC2)c1O)Nc1cccc(F)c1Cl [Compound of Formula (A), 1-(4-chloro-2-hydroxy-3-(piperazin-1-ylsulfonyl)phenyl)-3-(2-chloro-3-fluorophenyl)urea]",IC50,3.16 µM
